SMILES strings stand for the structures.

In experiment [1] the target is recombinant DYRK1A kinase (Homo sapiens (Human), UniProt Q13627). Nature of the experiment: DYRK1A kinase assay (Ser/Thr 18 peptide Z-lyte FRET assay). Type of experiment: biochemical. To be noted: DYRK1A kinase activity; 15 μM ATP, 1 h room temperature; method text calls the value IC50. The method, boiled down: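 Recombinant human DYRK1A (0.25 μg/mL) with 15 μM ATP and 4 μM Ser/Thr 18 peptide, 1 h at room temperature with compound (11-point, 1:3, 10 μM top, duplicate). Z-lyte development 1 h, then coumarin/fluorescein FRET emission ratio converted to % phosphorylation; IC50 by non-linear regression.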

In experiment [2] the test system is Tau phosphorylation at Thr212 (pThr212). Nature of the experiment: tau phosphorylation assay: phosphoTau (Thr212) AlphaLISA in HEK293T cells transfected with DYRK1A and MAPT. To be noted: HEK-293T; HEK293T cells transfected with human DYRK1A and MAPT; 18-24 h compound treatment; read-out: pTau (Thr212) EC50. It is filed as cell-based. The method, boiled down:
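HEK293T cells transiently co-transfected with human untagged DYRK1A and MAPT (441 aa Tau), reseeded, then treated 18-24 h at 37 °C with compounds (10-point 1:3 series, 20 μM to 1.1 nM final, duplicates). Lysates probed by AlphaLISA with HT7 donor and pThr212 acceptor antibodies; EC50 from curve fit of signal.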

One may read the EC50 as the concentration giving half of the maximal effect. As to `CN1CCN(c2cc(Nc3ncc4c(-c5ccc6c(c5)C(C)(C)CNC6=O)c[nH]c4n3)ccn2)CC1` [Compound 1849, 4,4-Dimethyl-6-(2-((2-(4-methylpiperazin-1-yl)pyridin-4-yl)amino)-7H-pyrrolo[2,3-d]pyrimidin-5-yl)-3,4-dihydroisoquinolin-1(2H)-one], the EC50 in experiment [1] was determined as 2.1 nM; in experiment [2], 168 nM.

`CO[C@H]1CC[C@@H](Nc2ncc3c(-c4ccc5ncccc5c4)c[nH]c3n2)CC1` [Compound 1885, N-(cis-4-Methoxycyclohexyl)-5-(quinolin-6-yl)-7H-pyrrolo[2,3-d]pyrimidin-2-amine]: the EC50 was 9 nM in experiment [1] and 2 nM in experiment [2].

As for `CN1CCC(Nc2ncc3c(-c4ccc5ncccc5c4)c[nH]c3n2)CC1` [Compound 1888, N-(1-Methylpiperidin-4-yl)-5-(quinolin-6-yl)-7H-pyrrolo[2,3-d]pyrimidin-2-amine], the 50% effective concentration (EC50) in experiment [1] came out at 3.1 nM; in experiment [2], 22 nM.

Consider `CC(C)(F)CNc1ncc2c(-c3ccc4nccnc4c3)c[nH]c2n1` [Compound 1913, N-(2-Fluoro-2-methylpropyl)-5-(quinoxalin-6-yl)-7H-pyrrolo[2,3-d]pyrimidin-2-amine], for which the half-maximal effective concentration (EC50) in experiment [1] is 4.9 nM; in experiment [2], 47 nM.

With `FC1(F)CCC(Nc2ncc3c(-c4ccc5nccnc5c4)c[nH]c3n2)CC1` [Compound 1928, N-(4,4-Difluorocyclohexyl)-5-(quinoxalin-6-yl)-7H-pyrrolo[2,3-d]pyrimidin-2-amine], the concentration for a half-maximal effect (EC50) in experiment [1] stood at 3.7 nM; in experiment [2] it was 111 nM.

`CO[C@H]1CC[C@@H](Nc2ncc3c(-c4ccc5nccnc5c4)c[nH]c3n2)CC1` [Compound 1929, N-(cis-4-Methoxycyclohexyl)-5-(quinoxalin-6-yl)-7H-pyrrolo[2,3-d]pyrimidin-2-amine]: the EC50 worked out at 5.3 nM in experiment [1] and 10 nM in experiment [2].
